Data reported in US20210122730A1, “GLUCOCORTICOID RECEPTOR MODULATORS” (ORIC Pharmaceuticals, Inc., priority 2017, published 2021).

The compounds below were run against T1, GR (Homo sapiens, UniProt P04150) (assay: In Vitro GR Luciferase Reporter Assay (antagonist mode, CHO-K1-GR-MMTV-Luc reporter cells)). Conditions: antagonist assay with 10 nM Dexamethasone, 18-24 hours.
T1 construct: expressed in transfected cells; host or cells: CHO-K1
T1 sequence (P04150 1-777): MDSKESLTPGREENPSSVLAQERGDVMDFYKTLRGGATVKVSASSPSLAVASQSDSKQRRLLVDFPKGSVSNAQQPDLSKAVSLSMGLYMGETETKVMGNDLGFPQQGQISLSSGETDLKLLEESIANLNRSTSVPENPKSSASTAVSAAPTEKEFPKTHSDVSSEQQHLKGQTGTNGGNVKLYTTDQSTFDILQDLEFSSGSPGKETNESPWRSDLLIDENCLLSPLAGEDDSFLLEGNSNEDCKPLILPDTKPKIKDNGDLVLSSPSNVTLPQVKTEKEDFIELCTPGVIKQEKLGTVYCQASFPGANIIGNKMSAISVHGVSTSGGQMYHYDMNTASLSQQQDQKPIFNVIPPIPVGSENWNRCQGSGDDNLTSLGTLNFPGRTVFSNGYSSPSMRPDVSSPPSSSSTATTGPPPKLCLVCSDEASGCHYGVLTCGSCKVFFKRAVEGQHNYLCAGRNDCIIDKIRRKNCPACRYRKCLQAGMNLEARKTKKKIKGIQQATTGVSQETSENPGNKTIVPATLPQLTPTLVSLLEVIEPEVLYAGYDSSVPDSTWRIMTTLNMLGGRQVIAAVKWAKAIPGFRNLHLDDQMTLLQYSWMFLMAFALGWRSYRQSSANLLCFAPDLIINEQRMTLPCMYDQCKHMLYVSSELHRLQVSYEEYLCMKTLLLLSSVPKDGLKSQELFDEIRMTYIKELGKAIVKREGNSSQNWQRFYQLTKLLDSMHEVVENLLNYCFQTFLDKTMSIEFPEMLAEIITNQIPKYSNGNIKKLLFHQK
Format: cell-based
Procedure, shortened: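 Antagonist mode: compounds (8 serial 1:5 dilutions) added to GR-MMTV-luciferase CHO-K1 reporter cells co-exposed to 10 nM dexamethasone final, in phenol red-free DMEM plus 10% CSS. After roughly 18-24 h at 37° C, OneGlo luminescence read and IC50 calculated.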

IC50, ≤ 100 nM:
O=C(c1ccccn1)[C@]12Cc3cnn(-c4ccc(F)cc4)c3C=C1CC[C@H](S(=O)(=O)C1CCOCC1)C2 [Example 46, ((4aS,6S)-1-(4-fluorophenyl)-6-((tetrahydro-2H-pyran-4-yl)sulfonyl)-1,4,5,6,7,8-hexahydro-4aH-benzo[f]indazol-4a-yl)(pyridin-2-yl)methanone]
O=C(c1ccccn1)[C@]12Cc3cnn(-c4ccc(F)cc4)c3C=C1CC[C@H](S(=O)(=O)c1ccncc1)C2 [Example 47, ((4aS,6S)-1-(4-fluorophenyl)-6-(pyridin-4-ylsulfonyl)-1,4,5,6,7,8-hexahydro-4aH-benzo[f]indazol-4a-yl)(pyridin-2-yl)methanone]
Cc1ccnc(C(=O)[C@]23Cc4cnn(-c5ccc(F)cc5)c4C=C2CC[C@H](S(=O)(=O)c2ccncc2)C3)c1 [Example 48, ((4aS,6S)-1-(4-fluorophenyl)-6-(pyridin-4-ylsulfonyl)-1,4,5,6,7,8-hexahydro-4aH-benzo[f]indazol-4a-yl)(4-methylpyridin-2-yl)methanone]
CC(C)(C)CS(=O)(=O)[C@H]1CCC2=Cc3c(cnn3-c3ccc(F)cc3)C[C@]2(C(=O)c2ccccn2)C1 [Example 49, ((4aS,6S)-1-(4-fluorophenyl)-6-(neopentylsulfonyl)-1,4,5,6,7,8-hexahydro-4aH-benzo[f]indazol-4a-yl)(pyridin-2-yl)methanone]
O=C(c1ccccn1)[C@]12Cc3cnn(-c4ccc(F)cc4)c3C=C1CC[C@H](S(=O)(=O)C1CCCC1)C2 [Example 50, ((4aS,6S)-6-(cyclopentylsulfonyl)-1-(4-fluorophenyl)-1,4,5,6,7,8-hexahydro-4aH-benzo[f]indazol-4a-yl)(pyridin-2-yl)methanone]
Cc1ccc(C(=O)[C@]23Cc4cnn(-c5ccc(F)cc5)c4C=C2CC[C@@H](S(=O)(=O)c2ccccc2)C3)nc1 [Example 51, ((4aS,6R)-1-(4-fluorophenyl)-6-(phenylsulfonyl)-1,4,5,6,7,8-hexahydro-4aH-benzo[f]indazol-4a-yl)(5-methylpyridin-2-yl)methanone]
O=C(c1ccccn1)[C@]12Cc3cnn(-c4ccc(F)cc4)c3C=C1CC[C@H](S(=O)(=O)c1cccnc1)C2 [Example 53, ((4aS,6S)-1-(4-fluorophenyl)-6-(pyridin-3-ylsulfonyl)-1,4,5,6,7,8-hexahydro-4aH-benzo[f]indazol-4a-yl)(pyridin-2-yl)methanone]
O=C(c1cc(C(F)(F)F)ccn1)[C@]12Cc3cnn(-c4ccc(F)cc4)c3C=C1CC[C@H](S(=O)(=O)c1cccnc1)C2 [Example 54, ((4aS,6S)-1-(4-fluorophenyl)-6-(pyridin-3-ylsulfonyl)-1,4,5,6,7,8-hexahydro-4aH-benzo[f]indazol-4a-yl)(4-(trifluoromethyl)pyridin-2-yl)methanone]
O=C(c1ccc(C2CC2)cn1)[C@]12Cc3cnn(-c4ccc(F)cc4)c3C=C1CC[C@H](S(=O)(=O)c1ccccn1)C2 [Example 57, (5-cyclopropylpyridin-2-yl)((4aS,6S)-1-(4-fluorophenyl)-6-(pyridin-2-ylsulfonyl)-1,4,5,6,7,8-hexahydro-4aH-benzo[f]indazol-4a-yl)methanone]
O=C(c1ccc(C(F)(F)F)cn1)[C@]12Cc3cnn(-c4ccc(F)cc4)c3C=C1CC[C@H](S(=O)(=O)c1ccccn1)C2 [Example 58, ((4aS,6S)-1-(4-fluorophenyl)-6-(pyridin-2-ylsulfonyl)-1,4,5,6,7,8-hexahydro-4aH-benzo[f]indazol-4a-yl)(5-(trifluoromethyl)pyridin-2-yl)methanone]
O=C(c1cc(C(F)(F)F)ccn1)[C@]12Cc3cnn(-c4ccc(F)cc4)c3C=C1CC[C@H](S(=O)(=O)C1CCOCC1)C2 [Example 59, ((4aS,6S)-1-(4-fluorophenyl)-6-((tetrahydro-2H-pyran-4-yl)sulfonyl)-1,4,5,6,7,8-hexahydro-4aH-benzo[f]indazol-4a-yl)(4-(trifluoromethyl)pyridin-2-yl)methanone]
CC1(O)CCC(S(=O)(=O)[C@H]2CCC3=Cc4c(cnn4-c4ccc(F)cc4)C[C@]3(C(=O)c3ccccn3)C2)CC1 (stereo partly drawn) [Example 60, ((4aS,6S)-1-(4-fluorophenyl)-6-((4-hydroxy-4-methylcyclohexyl)sulfonyl)-1,4,5,6,7,8-hexahydro-4aH-benzo[f]indazol-4a-yl)(pyridin-2-yl)methanone]
COc1ccc(C(=O)[C@]23Cc4cnn(-c5ccc(F)cc5)c4C=C2CC[C@H](S(=O)(=O)c2ccccn2)C3)nc1 [Example 61, ((4aS,6S)-1-(4-fluorophenyl)-6-(pyridin-2-ylsulfonyl)-1,4,5,6,7,8-hexahydro-4aH-benzo[f]indazol-4a-yl)(5-methoxypyridin-2-yl)methanone]
O=C(c1ccc(C2CC2)cn1)[C@]12Cc3cnn(-c4ccc(F)cc4)c3C=C1CC[C@H](S(=O)(=O)C1CCOCC1)C2 [Example 62, (5-cyclopropylpyridin-2-yl)((4aS,6S)-1-(4-fluorophenyl)-6-((tetrahydro-2H-pyran-4-yl)sulfonyl)-1,4,5,6,7,8-hexahydro-4aH-benzo[f]indazol-4a-yl)methanone]
CC(C)S(=O)(=O)[C@H]1CCC2=Cc3c(cnn3-c3ccc(F)cc3)C[C@]2(C(=O)c2ccccn2)C1 [Example 63, ((4aS,6S)-1-(4-fluorophenyl)-6-(isopropylsulfonyl)-1,4,5,6,7,8-hexahydro-4aH-benzo[f]indazol-4a-yl)(pyridin-2-yl)methanone]
O=C(c1cc(C(F)(F)F)ccn1)[C@]12Cc3cnn(-c4ccc(F)cc4)c3C=C1CC[C@H](S(=O)(=O)c1ccc(F)cc1)C2 [Example 64, ((4aS,6S)-1-(4-fluorophenyl)-6-((4-fluorophenyl)sulfonyl)-1,4,5,6,7,8-hexahydro-4aH-benzo[f]indazol-4a-yl)(4-(trifluoromethyl)pyridin-2-yl)methanone]
O=C(c1ccccn1)[C@]12Cc3cnn(-c4ccc(F)cc4)c3C=C1CC[C@H](S(=O)(=O)C1CCC(F)(F)CC1)C2 [Example 65, ((4aS,6S)-6-((4,4-difluorocyclohexyl)sulfonyl)-1-(4-fluorophenyl)-1,4,5,6,7,8-hexahydro-4aH-benzo[f]indazol-4a-yl)(pyridin-2-yl)methanone]
Cn1cc(S(=O)(=O)[C@H]2CCC3=Cc4c(cnn4-c4ccc(F)cc4)C[C@]3(C(=O)c3ccc(OC(F)(F)F)cn3)C2)cn1 [Example 66, ((4aS,6S)-1-(4-fluorophenyl)-6-((1-methyl-1H-pyrazol-4-yl)sulfonyl)-1,4,5,6,7,8-hexahydro-4aH-benzo[f]indazol-4a-yl)(5-(trifluoromethoxy)pyridin-2-yl)methanone]
O=C(c1ccccn1)[C@]12Cc3cnn(-c4ccc(F)cc4)c3C=C1CC[C@H](S(=O)(=O)C1CCC1)C2 [Example 67, ((4aS,6S)-6-(cyclobutylsulfonyl)-1-(4-fluorophenyl)-1,4,5,6,7,8-hexahydro-4aH-benzo[f]indazol-4a-yl)(pyridin-2-yl)methanone]
O=C(c1ccc(F)cn1)[C@]12Cc3cnn(-c4ccc(F)cc4)c3C=C1CC[C@H](S(=O)(=O)c1ccccn1)C2 [Example 68, ((4aS,6S)-1-(4-fluorophenyl)-6-(pyridin-2-ylsulfonyl)-1,4,5,6,7,8-hexahydro-4aH-benzo[f]indazol-4a-yl)(5-fluoropyridin-2-yl)methanone]
O=C(c1ccc(C(F)(F)F)cn1)[C@]12Cc3cnn(-c4ccc(F)cc4)c3C=C1CC[C@H](S(=O)(=O)C1CCOCC1)C2 [Example 70, ((4aS,6S)-1-(4-fluorophenyl)-6-((tetrahydro-2H-pyran-4-yl)sulfonyl)-1,4,5,6,7,8-hexahydro-4aH-benzo[f]indazol-4a-yl)(5-(trifluoromethyl)pyridin-2-yl)methanone]
O=C(c1cc(C(F)(F)F)ccn1)[C@]12Cc3cnn(-c4ccc(F)cc4)c3C=C1CC[C@H](S(=O)(=O)c1cnn(C3CC3)c1)C2 [Example 71, ((4aS,6S)-6-((1-cyclopropyl-1H-pyrazol-4-yl)sulfonyl)-1-(4-fluorophenyl)-1,4,5,6,7,8-hexahydro-4aH-benzo[f]indazol-4a-yl)(4-(trifluoromethyl)pyridin-2-yl)methanone]
Cn1cc(S(=O)(=O)[C@H]2CCC3=Cc4c(cnn4-c4ccc(F)cc4)C[C@]3(C(=O)c3ccc(C4CC4)cn3)C2)cn1 [Example 72, (5-cyclopropylpyridin-2-yl)((4aS,6S)-1-(4-fluorophenyl)-6-((1-methyl-1H-pyrazol-4-yl)sulfonyl)-1,4,5,6,7,8-hexahydro-4aH-benzo[f]indazol-4a-yl)methanone]
